Results on 1 compound are retold here after patent publication US9161981B2 (LG LIFE SCIENCES, LTD., priority 2010, dated 2015).

For this series the following is noted: phenol between MCT oil phase and saline phase; oil and saline 19:1; HPLC.

Excerpt: The partition coefficient P is a value calculated by dividing a concentration of preservative in the oil phase by a concentration of preservative in the water phase.

By logP is commonly meant a log measure of how a compound divides between an organic and an aqueous phase. Read a high logP as a more lipophilic compound. For the compound `Oc1ccccc1` [phenol], the logP is 1.1.
